Several values for one entry are separate records, joined by “and”; a condition that tells them apart may be missing. Equal values may be shown once.
What was measured:
[1] = test system: TAA-induced cholestatic liver injury; assay: TAA-induced mouse cholestatic liver injury (Example 2); assay type: in vivo, C57BL/6 mice
Description: A total of 18 male C57BL/6 mice were divided into three groups: blank group (n=6); model group (n=6); treatment group (n=6).
Celastrol was dissolved in a solvent to obtain a solution of celastrol at a concentration of 2 mg/mL, wherein the solvent consisted of 1% DMSO, 2% Tween, and 97% water (v:v:v). For intragastrical administration, the dosage of celastrol was 10 mg/kg·d. TAA was dissolved in 0.9% NaCl solution to prepare a NaCl solution of TAA at a concentration of […], and the dosage of TAA for intraperitoneal administration was 300 mg/kg.
The treatment group was administered intragastrically with the celastrol solution at a dosage of 10 mg/kg·d for 4 consecutive days. At the same time, the blank group and the model group were intragastrically administered with the same dosage of a solvent, wherein the solvent consisted of 1% DMSO, 2% Tween 80 and 97% water (v:v:v), and the solvent was administrated for 4 consecutive days.
On the 4th day, TAA model was established. 1 Hour after administration with the solvent or celastrol solution, the mice of the treatment group and the model group were respectively intraperitoneally injected with the NaCl solution of TAA at a dosage of 300 mg/kg to induce cholestatic liver injury. 24 Hours after treatment with TAA, the mice were sacrificed by CO2 anesthesia, and plasma samples and liver samples were collected. The eyeballs of the mice were taken for blood collection. The plasma samples were placed on ice for 1-2 hours, centrifuged at 4000 g for 5 minutes at 4° C., and the supernatant plasma samples were taken to determine the plasma biochemical indicators, the levels of ALT, AST and ALP.
At the same time, plasma samples were prepared: 10 μL of plasma sample was taken, mixed with 190 μL of 67% acetonitrile (containing 5 μM internal standard chlorpropamide), centrifuged at 18000 g for 20 minutes at 4° C., and the supernatant was taken for sample injection.
Liver samples were prepared: 100 mg liver samples were mixed well with 1 mL of 50% acetonitrile (containing 5 μM internal standard chlorpropamide), shaken for 20 minutes at room temperature, and then centrifuged at 18000 g for 20 minutes at 4° C. Thereafter, 200 μL of the supernatant was taken and added with 200 μl of pure acetonitrile, vortexed for 1 minute, centrifuged at 18000 g for 20 minutes at 4° C., and the supernatant was taken for sample injection. The liquid chromatography conditions were as follows: the injection volume was 5 μL; the temperature of column was 45° C.; the flow rate of mobile phase was 0.3 mL/min; the gradient elution was that acetonitrile concentration changed from 2% to 98% during 16 minutes of operation, wherein the mobile phase (water/acetonitrile solution) contained 0.01% formic acid. The elution procedure was as follows: during 0-12th minute, the acetonitrile concentration changed from 2% to 98% at a constant rate; 12-14th minute, the acetonitrile concentration was maintained at 98%; 14-14.1th minute, the acetonitrile concentration changed from 98% to 2%; 14.1-16th minute, the acetonitrile concentration was maintained at 2%. Mass spectrometry conditions were as follows: the temperature of dry gas was 350° C., the pressure of nebulizer was 35 psi, and the voltage of capillary was 3.5 kV.
Part of the collected mouse liver tissue was fixed overnight in formalin and tissue sections were stained with hematoxylin and eosin (H&E).

[2] = test system: ANIT-induced cholestatic liver injury in FXR knockout mice; assay: Effect of FXR on celastrol activity in ANIT model (Example 5); assay type: in vivo, FXR knockout mice (C57BL/6J as background)
Description: The same experimental method of Example 1 was used, wherein the experimental animals were FXR knockout mice (C57BL/6J as background), and the FXR knockout mice were presented by Frank J. Gonzalez, a researcher of the Cancer Institute of National Institutes of Health, USA.

[3] = test system: TAA-induced cholestatic liver injury in FXR knockout mice; assay: Effect of FXR on celastrol activity in TAA model (Example 6); assay type: in vivo, FXR knockout mice (C57BL/6J as background)
Description: The same experimental method of Example 2 was used, wherein the experimental animals were FXR knockout mice (C57BL/6J as background), and the FXR knockout mice were presented by Frank J. Gonzalez, a researcher of the Cancer Institute of National Institutes of Health, USA.

[4] = test system: TAA-induced liver fibrosis; assay: TAA-induced liver fibrosis in mice (Example 7); assay type: in vivo, C57BL/6 mice; conditions: three times per week from second week, TAA 6 weeks
Description: A total of 30 male C57BL/6 mice were divided into three groups: blank group (n=10); TAA liver fibrosis group (n=10); treatment group (n=10).
Celastrol was dissolved in a solvent to obtain a celastrol solution at a concentration of 2 mg/mL, wherein the solvent consisted of 1% DMSO, 2% Tween 80, and 97% water (v:v:v); for intragastrical administration, the dosage of celastrol was 10 mg/kg/time, three times per week, and the administration was absent in the first week. TAA was dissolved in 0.9% NaCl solution to prepare a NaCl solution of TAA at a concentration of […], and the dosage for intraperitoneal administration was 100 mg/kg/time in the first week and 160 mg/kg/time in the second to sixth week, three times per week.
The model group and the treatment group were administrated with TAA three times per week, and administered every other day. The dosage of TAA was 100 mg/kg each time during the first week. From the second week onwards, the dosage of TAA administered to the model group and the treatment group was changed to 160 mg/kg each time. The blank group was given an equal dosage of NaCl solution.
The treatment group was administrated with celastrol from the second week, in which celastrol at a dosage of 10 mg/kg was administered 1 hour after administration with TAA. The blank group and the model group were administrated with an equal dosage of solvent (1% DMSO, 2% Tween 80, and 97% water (v: v: v)).
Six weeks later, mice were sacrificed by CO2 anesthesia, and mouse plasma samples and liver samples were collected. The eyeballs of the mice were taken for blood collection. The plasma samples were placed on ice for 1-2 hours, centrifuged at 4000 g for 5 minutes at 4° C., and the supernatants of plasma samples were taken to determine the plasma biochemical indicators, the levels of ALT, AST, and ALP.
Part of the collected mouse liver tissue was fixed overnight in formalin, and tissue sections were stained with hematoxylin and eosin (H&E).

[5] = celastrol 10 mg/kg·d intragastric 4 days, TAA 300 mg/kg i.p. on day 4, 24 h after TAA, n=6
[6] = celastrol 10 mg/kg·d intragastric 4 days, TAA 300 mg/kg i.p., 24 h after TAA, n=6
[7] = method of Example 1, ANIT model, FIG. 5A
[8] = celastrol 10 mg/kg/time, P<0.05, FIG. 7D

With `CC1=C(O)C(=O)C=C2C1=CC=C1[C@@]2(C)CC[C@@]2(C)[C@@H]3C[C@](C)(C(=O)O)CC[C@]3(C)CC[C@]12C` [celastrol, Celastrol] the “Liver weight of mouse when sacrificed” value [1, 5] was 1.55 g and 1.55 ± 0.21 g, the Liver weight/body weight [1, 5] was 6.48% and 6.48 ± 0.93% and the “ALP in mouse plasma” value [1, 6] was 50.1 ± 7.8 U/l. The “ALT in mouse plasma” value [1, 6] was 333.3 ± 211.3 U/l, the “AST in mouse plasma” value [1, 6] was 920.3 ± 433.4 U/l and the “H&E staining: area of liver necrosis in liver tissue” value ([1]; celastrol 10 mg/kg·d intragastric, TAA model, FIG. 2C) was “significantly reduced”. The “Levels of bile acids in plasma vs TAA model group” value ([1]; ω-MCA, DCA, TβMCA/TαMCA, TCA, THDCA/TUDCA, TCDCA, TDCA, celastrol 10 mg/kg·d, FIG. 2D) was “significantly lower”, the “Levels of bile acids in liver vs TAA model group” value ([1]; ω-MCA, β-MCA, CA, DCA, TβMCA/TαMCA, TCA, GCA, TLCA, celastrol 10 mg/kg·d, FIG. 2E) was “significantly lower” and the “Levels of bile acids in plasma vs ANIT model group” value ([2]; CA, DCA, TβMCA/TαMCA, TCA, THDCA/TUDCA, method of Example 1, FIG. 5B) was “no significant decrease”. The “ALP level in plasma vs model group” value [2, 7] was “no significant decrease”, the “ALT level in plasma vs model group” value [2, 7] was “no significant decrease” and the “Levels of bile acids in plasma vs model group” value ([3]; co-MCA, DCA, TCA, THDCA/TUDCA, TCDCA, method of Example 2, FIG. 6E) was “no significant decrease”. The “H&E staining of liver tissue” value ([3]; method of Example 2, TAA model, FIG. 6C) was “a severe necrosis of liver cells also occurred”, the “AST level in plasma vs model group” value ([3]; method of Example 2, TAA model, FIG. 6D) was “no significant decrease” and the “H&E staining: liver tissue damage and liver morphology” value ([4]; celastrol 10 mg/kg/time intragastric, n=10, FIG. 7C) was “reduced and the liver morphology was also significantly recovered”. For the same compound, the “ALT level in plasma vs model group” value [4, 8] was “significantly lower” and the “AST level in plasma vs model group” value [4, 8] was “significantly lower”.

From patent publication US11607417B2, “Uses of celastrol in preventing and/or treating cholestatic liver disease and liver fibrosis” (KUNMING INSTITUTE OF BOTANY, THE CHINESE ACADEMY OF SCIENCES, priority 2017, dated 2023)
